LD50 data for one molecule are collected here from patent publication US4874751A, “Antibacterial treatment” (priority 1985, dated 1989).

`Cc1cn([C@H]2C[C@H](N=[N+]=[N-])[C@@H](CO)O2)c(=O)[nH]c1=O`: the LD50 entry in the data set “LD50 in rats” and in the data set “LD50 in mice” was “greater than 750 mg/kg” throughout.
